Reference: PMC10937556, “Phenolic phytochemistry, in vitro, in silico, in vivo, and mechanistic anti-inflammatory and antioxidant evaluations of Habenaria digitata” (Frontiers in Pharmacology, 2024)

System: histamine-induced paw edema
Assay: Histamine-induced paw edema
Details: 20 mg/kg, 2nd hour
Protocol: Employing prostaglandin E2, bradykinin, leukotriene, and histamine induced paw edema assays; the potential anti-inflammatory mechanism of the isolated compound was investigated. […] Sub-planter injections of prostaglandin E2 (0.01 mg/mL) or 10 mg/mL leukotriene or bradykinin (20 mg/mL) or 0.1 mL histamine (1 mg/mL) produced paw edema after 1 h. Each mouse’s paw volume was assessed immediately before and after sub-planter injection of various irritants (inflammatory agents) at 1–5 h.

Cc1cnc(O)nc1O [Compound 1, 5-methylpyrimidine-24,4-diol]
Percentage inhibition of histamine-induced paw edema: 28.12 ± 0.62%
